This note sets out measurements from patent publication US20060093562A1 (priority 2004, published 2006).

Read-outs that look alike come from different tables or passages of the source. Bounds are passed on as bounds.

A short description of data set [1]: Foam height test (vortexed paste/gel/water mixture with surfactant). Conditions: 1% total surfactant (actives); for Total Height: 1 g surfactant-free paste of Table 1, 1 g surfactant-free gel of Table 2, 6 g water, vortex 1 minute, foam plus liquid underneath; for Liquid Height: volume of liquid underneath the foam, less than 5 mL not quantifiable. It is filed as physicochemical. Here is the method: The test used 1% total surfactant (actives). The surfactant was added to an aqueous mixture containing 1 g of surfactant-free paste of Table 1, 1 g of the surfactant-free version of the gel of Table 2, and 6 g of water. The mixture, prepared in a centrifuge tube, is placed on a Vortex-Genie 2 (Scientific Industries) on setting 5, and allowed to vortex for 1 minute. The total height measured was the total volume of the foam plus any liquid underneath. The liquid height was the volume of liquid underneath the foam. Liquid volumes of less than 5 mL could not be quantified since the lowest level on the centrifuge tube used to conduct the foam test was 5 mL.

Data set [2] is classed as physicochemical. The following applies: paste of Table 1 with surfactant.

As for “Sodium Laureth Sulfate, 1 Ether Group [SLES-1]”, in data set [1], the “Total Height” value stood at 9 mL and the “Liquid Height” value was 7 mL.
`O=C([O-])O.[Na+]` [sodium bicarbonate]: the Saturated solution concentration entry is “about 3.8%”.
Consider `CCCCCCCCCCOS(=O)(=O)[O-].[Na+]` [SDS, Sodium Decyl Sulfate], for which, in data set [1], the “Total Height” value came out at 19 mL and the “Liquid Height” value is reported as <5 mL.
Regarding `CCCCCCCCCCCCOS(=O)(=O)[O-].[Na+]` [SLS, Sodium Lauryl Sulfate], in data set [1], the “Total Height” value came to 9 mL. Also, the “Liquid Height” value in data set [1] was 7 mL. The “Phase Behavior” value in data set [2] (stored at 100° F.) and in data set [2] (stored at RT) was “Single Phase” throughout.
Regarding “Sodium Laureth Sulfate, 2 Ether Groups [SLES-2]”, in data set [1], the “Total Height” value was 9 mL and the “Liquid Height” value amounted to 7 mL.
On the same counts, the results for Cocamidopropyl Betaine [CBT] are 10 mL and 7 mL.
Taken in the same sequence, the figures for “Sodium Laureth Sulfate, 3 Ether Groups [SLES-3]” were 10 mL and 7 mL.
